≈ marks a conversion by molar mass, not a printed value.
Assays:
Experiment in all cases: Average MIC, solid medium (nutrient agar) dilution method
Esch. coli. LRB 67 = details: Escherichia coli, 18 h, read-out: minimum inhibitory concentration, average
Esch. coli. Cho = details: Escherichia coli, 18 h, read-out: minimum inhibitory concentration, average
Sh. sonnei I.P.S. = type: cell-based; details: Shigella sonnei, 18 h, average of five determinations, read-out: minimum inhibitory concentration, average
Staphylococcus SIM = details: 18 h, read-out: minimum inhibitory concentration, average
Arizona 6211 = details: 18 h, read-out: minimum inhibitory concentration, average
S. enteritidis DANYZ = details: Salmonella enterica, 18 h, read-out: minimum inhibitory concentration, average
Staphylococcus 209P = details: 18 h, read-out: minimum inhibitory concentration, average
Bord. bronch. 4617 = details: 18 h, read-out: minimum inhibitory concentration, average
Esch. coli. LRB 45 = details: Escherichia coli, 18 h, read-out: minimum inhibitory concentration, average
Staphylococcus 9144 = details: Staphylococcus, 9144, 18 h, read-out: minimum inhibitory concentration, average
Esch. coli. 54-127 OMS = details: Escherichia coli, 18 h, read-out: minimum inhibitory concentration, average
Providencia 0223 = details: Providencia, 0223, 18 h, read-out: minimum inhibitory concentration, average
S. oranienburg 10-66 = details: Salmonella enterica, 1066, 18 h, read-out: minimum inhibitory concentration, average
Salm. typhi 0901 = type: cell-based; details: Salmonella enterica, 18 h, read-out: minimum inhibitory concentration, average
B. subtilis 6633 = details: Bacillus subtilis, 6633, 18 h, read-out: minimum inhibitory concentration, average
Pr. vulgaris 12-53 = details: Proteus vulgaris, 1253, 18 h, read-out: minimum inhibitory concentration, average
Ps. aeruginosa A22 = details: Pseudomonas aeruginosa, A22, 18 h, read-out: minimum inhibitory concentration, average
Streptococcus A561 = details: A561, 18 h, read-out: minimum inhibitory concentration, average
Esch. coli. 95 I.S.M. = details: Escherichia coli, 18 h, read-out: minimum inhibitory concentration, average
Esch 111 B4 = type: cell-based; details: 18 h, average of five determinations, read-out: minimum inhibitory concentration, average
Klebs. pneumoniae 10.031 = details: Klebsiella pneumoniae, 10.031, 18 h, read-out: minimum inhibitory concentration, average
Ps. aeruginosa 72-345 = details: Pseudomonas aeruginosa, 72345, 18 h, read-out: minimum inhibitory concentration, average
Pr. morganii A 236 = details: Morganella morganii, A236, 18 h, read-out: minimum inhibitory concentration, average
Pr. mirabilis Nig = details: Proteus mirabilis, 18 h, read-out: minimum inhibitory concentration, average
Streptococcus DM19 = details: DM19, 18 h, read-out: minimum inhibitory concentration, average

Row | Compound | MIC (Esch. coli. LRB 67) [µg/mL] | MIC (Esch. coli. Cho) [µg/mL] | MIC (Sh. sonnei I.P.S.) [µg/mL] | MIC (Staphylococcus SIM) [µg/mL] | MIC (Arizona 6211) [µg/mL] | MIC (S. enteritidis DANYZ) [µg/mL] | MIC (Staphylococcus 209P) [µg/mL] | MIC (Bord. bronch. 4617) [µg/mL] | MIC (Esch. coli. LRB 45) [µg/mL] | MIC (Staphylococcus 9144) [µg/mL] | MIC (Esch. coli. 54-127 OMS) [µg/mL] | MIC (Providencia 0223) [µg/mL] | MIC (S. oranienburg 10-66) [µg/mL] | MIC (Salm. typhi 0901) [µg/mL] | MIC (B. subtilis 6633) [µg/mL] | MIC (Pr. vulgaris 12-53) [µg/mL] | MIC (Ps. aeruginosa A22) [µg/mL] | MIC (Streptococcus A561) [µg/mL] | MIC (Esch. coli. 95 I.S.M.) [µg/mL] | MIC (Esch 111 B4) [µg/mL] | other results
1 | CCn1cc(C(=O)O)c(=O)c2cnc(N3CCCC3)nc21 [Example III, 2-Pyrrolidino-5-oxo-8-ethyl-5,8-dihydro-pyrido(2,3-d)-pyrimidine-6-carboxylic acid] | 12.5 (≈ 43.4 µM) | 32.5 (≈ 113 µM) | 10.6 (≈ 36.8 µM) | 15 (≈ 52 µM) | 27.5 (≈ 95.4 µM) | 21.9 (≈ 76 µM) | 3.42 (≈ 11.9 µM) | 80 (≈ 277 µM) | 15.6 (≈ 54.2 µM) | 4.04 (≈ 14 µM) | 15.6 (≈ 54.2 µM) | 100 (≈ 347 µM) | 100 (≈ 347 µM) | 23.7 (≈ 82.3 µM) | 1 (≈ 3.47 µM) | 5.6 (≈ 19.4 µM) | 100 (≈ 347 µM) | 2.82 (≈ 9.78 µM) | 32.5 (≈ 113 µM) | 15.6 (≈ 54.2 µM) | MIC (Klebs. pneumoniae 10.031): 1.2 µg/mL (≈ 4.16 µM); MIC (Ps. aeruginosa 72-345): 75 µg/mL (≈ 260 µM); MIC (Pr. morganii A 236): 0.56 µg/mL (≈ 1.94 µM); MIC (Pr. mirabilis Nig): 30 µg/mL (≈ 104 µM); MIC (Streptococcus DM19): 100 µg/mL (≈ 347 µM)
2 | CCn1cc(C(=O)O)c(=O)c2ccc(C)nc21 [Nalidixic acid, nalidixic acid, reference compound] | 2.7 (≈ 11.6 µM) | 4.04 (≈ 17.4 µM) | 1.58 (≈ 6.8 µM) | 56.2 (≈ 242 µM) | 3.12 (≈ 13.4 µM) | 2.75 (≈ 11.8 µM) | 16.2 (≈ 69.9 µM) | 25 (≈ 108 µM) | 3.1 (≈ 13.3 µM) | 25 (≈ 108 µM) | 2.15 (≈ 9.26 µM) | 100 (≈ 431 µM) | 100 (≈ 431 µM) | 2.7 (≈ 11.6 µM) | 72 (≈ 310 µM) | 0.88 (≈ 3.79 µM) | 60 (≈ 258 µM) | 18.7 (≈ 80.7 µM) | 21.9 (≈ 94.2 µM) | 2.34 (≈ 10.1 µM) | MIC (Klebs. pneumoniae 10.031): 1.4 µg/mL (≈ 6.03 µM); MIC (Ps. aeruginosa 72-345): 60 µg/mL (≈ 258 µM); MIC (Pr. morganii A 236): 0.36 µg/mL (≈ 1.55 µM); MIC (Pr. mirabilis Nig): 3.42 µg/mL (≈ 14.7 µM); MIC (Streptococcus DM19): 100 µg/mL (≈ 431 µM)
